Laboratory results: US20040249128A1, “Molecules for disease detection and treatment” (priority 2001, published 2004)

Legend:
[1] = tested on: bovine aortic endothelial cells; settings: confluent cells; cited from earlier work
[2] = tested on: human fibroblastic IMR-90 cells; settings: cited from earlier work
[3] = tested on: endothelial cell lines; test: Microarray expression analysis of endothelial cell lines treated with TNF-α; type: cell-based, human; settings: 10 ng/ml TNF-α, within four hours; in five out of the eight endothelial cell lines
[4] = tested on: human umbilical vein endothelial cells (HVECs); settings: TNF-α treated compared with untreated cells; cited from earlier work
[5] = tested on: dendritic cells; test: Microarray expression analysis during differentiation and maturation of dendritic cells; type: cell-based, human; settings: maturation of dendritic cells induced by TNF-alpha, versus immature dendritic cells (Lci)
Description: Human CD34 positive precursor cells were isolated by positive immunomagnetic selection from the leukapheresis of normal volunteer donors who had undergone G-CSF-induced stem cell mobilization. The purified CD34+ cells were cultured in vitro for 10 days in the presence of recombinant GM-CSF, Stem Cell Factor, TNF-alpha, TGF-beta1, and Flt3-Ligand. The resulting expanded cell population was enriched for cell cluster-forming immature dendritic cells (Lci) by sedimentation over a 7.5% BSA column at 1 g for 30 min. Immature dendritic cells were cultured for two additional days in the presence of the same combination of cytokines supplemented with LPS, IL-1beta, TNF-alpha, or double strand RNA. In addition, cluster-forming immature dendritic cells were disrupted by vigorous pipetting and cultured for two additional days in the presence of the same combination of cytokines without addition of any additional factor. The partially mature dendritic cells derived by mechanical disruption of cell clusters are characterized by the presence of intracellular rod-shaped structures called Birbeck's Granules. The dendritic cell population produced using this method was called Birbeck's Granule-positive dendritic cells, or BG. […]

[6] = tested on: vascular smooth muscle cells (SMCs); settings: cited from earlier work
[7] = intranasal; greater than those produced by hydrocortisone; cited from earlier work

Compound	suppression of [3H]proline incorporation [1]	suppression of [3H]proline incorporation [2]	expression of SEQ ID NO:58 [3]	increase of cellular secretions of MCP-1 [4]	expression of SEQ ID NO:96 [5]	relative proportion of collagen types IV and V [6]	incorporation of [3H]proline into collagenase-digestible proteins (CDP) and noncollagenous proteins (NCP) ([6]; confluent cultures)	anti-inflammatory and vasoconstrictive effects relative to hydrocortisone [7]
TNF-α	not observed	not observed	downregulated by at least two-fold	119 fold	greater than two-fold expression	decreases	suppresses	–
C[C@H]1C[C@H]2[C@@H]3CCC4=CC(=O)C=C[C@]4(C)[C@@]3(Cl)[C@@H](O)C[C@]2(C)[C@@]1(O)C(=O)CO [beclomethasone, Beclomethasone]	–	–	–	–	–	–	–	5000 times
